The values that follow come from DBAASP.

Test systems include Fusarium oxysporum; Trichoderma asperellum; Ramulariopsis gossypii; Klebsiella pneumoniae; Escherichia coli; Aeromonas hydrophila; Streptococcus pyogenes; Vibrio fluvialis; Vibrio parahaemolyticus; Vibrio alginolyticus; Staphylococcus aureus; Candida krusei CBS 573.
Assay in all cases: ≥ marks a high value that may be exact or a test limit, other limits are often not marked, values filed in µg/mL are converted to µM
The subject of test [1] is Listeria monocytogenes ATCC 19115.
The test system of test [2] is Staphylococcus aureus CMCC 26003.
Test [3] relates to Fusarium oxysporum f.sp. vasinfectum.
The test system of test [4] is Escherichia coli ATCC 25922.
Test [5] has as its system Cryptococcus neoformans ATCC 28957.
The test system of test [6] is Pseudomonas syringae pv. tabaci.
The subject of test [7] is Pectobacterium carotovorum.
For test [8], the system named is Xanthomonas campestris pv. citri.
Test [9] has as its system Bacillus subtilis ATCC 23857.
Test [10] relates to Candida albicans ATCC 90028.
The subject of test [11] is Staphylococcus aureus ATCC 25923.
Test [12] concerns Streptococcus iniae KCTC 3657.
The test system of test [13] is Salmonella enterica subsp. enterica serovar Typhimurium ATCC 14028.
Test [14] deals with Streptococcus agalactiae ATCC 27956.
Test [15] relates to Staphylococcus aureus ATCC 6538.
The test system of test [16] is Pseudomonas aeruginosa ATCC 27853.
Test [17] has as its system Bacillus cereus ATCC 10876.
In test [18] the test system is Streptococcus dysgalactiae subsp. dysgalactiae ATCC 27957.
In test [19] the test system is Enterococcus faecalis ATCC 29212.
The subject of test [20] is Streptococcus equi subsp. zooepidemicus ATCC 43079.
In test [21] the test system is Candida albicans ATCC 10231.
Test [22] has as its system Candida parapsilosis CBS 604.
Test [23] concerns Saccharomyces cerevisiae SZMC 0644.
Test [24] has as its system Pseudomonas aeruginosa ATCC 15692.
For test [25], the system named is Staphylococcus aureus ATCC 29213.
In test [26] the test system is Listeria monocytogenes ATCC 3710.
For test [27], the system named is Bacillus subtilis KCTC 1998.
For test [28], the system named is Proteus vulgaris KCTC 2433.
In test [29] the test system is Staphylococcus epidermidis ATCC 12228.

One may read the MIC as the smallest concentration in the dilution series that meets the test's criterion for growth inhibition. Lower therefore signals greater potency.

In brackets after ≈: the same amount, converted by molar mass. Several values for one entry are separate records, joined by “and”; a condition that tells them apart may be missing. Equal values may be shown once.

Regarding `CC[C@H](C)[C@H](NC(=O)[C@H](CCCN=C(N)N)NC(=O)[C@H](CCCN=C(N)N)NC(=O)[C@H](Cc1c[nH]c2ccccc12)NC(=O)[C@@H](N)Cc1ccccc1)C(=O)N[C@@H](CCCN=C(N)N)C(=O)N[C@H](C(=O)N[C@H](C(=O)N1CCC[C@H]1C(=O)N[C@H](C(=O)N[C@H](C(=O)N[C@@H](CC(N)=O)C(=O)N1CCC[C@H]1C(=O)N1CCC[C@H]1C(=O)N[C@@H](Cc1ccccc1)C(=O)N[C@@H](CC(C)C)C(=O)N[C@@H](CCC(N)=O)C(=O)N[C@@H](CCC(N)=O)C(=O)N[C@H](C(N)=O)[C@@H](C)O)C(C)C)C(C)C)[C@@H](C)O)C(C)C` [FWRRIRVTPVVNPPFLQQT], the MIC in [1] and in test [2] was at least 109 µM throughout.

Take `CC(C)C[C@H](NC(=O)[C@H](C)NC(=O)[C@H](CCCN=C(N)N)NC(=O)[C@@H](NC(=O)[C@H](CCC(N)=O)NC(=O)[C@H](CCCCN)NC(=O)[C@H](CCCCN)NC(=O)[C@H](C)NC(=O)[C@H](CC(C)C)NC(=O)[C@H](CCCCN)NC(=O)[C@H](C)NC(=O)CN)C(C)C)C(=O)NCC(=O)N[C@@H](CCCCN)C(=O)N[C@@H](Cc1ccccc1)C(=O)N[C@@H](Cc1ccccc1)C(=O)N[C@@H](CO)C(=O)N[C@@H](Cc1ccccc1)C(N)=O` [GAKLAKKQVRALGKFFSF]: the MIC in [3] was at least 64 µM; in test [4], 16 µM (≈ 31.9 µg/mL); in test [5], at least 64 µM; in test [6], 8 µM (≈ 16 µg/mL); in the test with Fusarium oxysporum it was at least 256 µM; in [7] it was at least 32 µM. Moreover, the minimal inhibitory concentration (MIC) is at least 32 µM in [8]; 8 µM (≈ 16 µg/mL) in test [9]; at least 128 µM in the test on Trichoderma asperellum; 16 µM (≈ 31.9 µg/mL) against Ramulariopsis gossypii; at least 128 µM in [10].

For the compound `CC[C@H](C)[C@H](NC(=O)[C@H](CCCCN)NC(=O)[C@H](CCC(N)=O)NC(=O)[C@H](CC(C)C)NC(=O)CNC(=O)[C@H](CCCCN)NC(=O)CNC(=O)[C@H](CC(C)C)NC(=O)[C@H](CCCCN)NC(=O)[C@H](CCCCN)NC(=O)[C@H](CCCN=C(N)N)NC(=O)[C@H](C)NC(=O)[C@H](CCCCN)NC(=O)[C@H](CCCN=C(N)N)NC(=O)[C@H](Cc1ccccc1)NC(=O)[C@H](Cc1ccccc1)NC(=O)[C@H](CCCCN)NC(=O)[C@@H](N)CO)C(=O)N[C@@H](CCCCN)C(=O)N[C@@H](CC(N)=O)C(=O)N[C@H](C(=O)N[C@@H](CC(C)C)C(=O)N[C@@H](CCCN=C(N)N)C(=O)N[C@@H](CCCCN)C(=O)N[C@@H](Cc1ccc(O)cc1)C(=O)O)C(C)C` [SKFFRKARKKLGKGLQKIKNVLRKY], the MIC in test [4] was determined as 0.264 µM (≈ 0.8 µg/mL); in test [11], 24.7 µM (≈ 75 µg/mL); in the test on Klebsiella pneumoniae, 1.32 µM (≈ 4 µg/mL); in test [12] it was 21.1 µM (≈ 64 µg/mL); in [13] it was 1.65 µM (≈ 5 µg/mL); in test [14] it was 13.2 µM (≈ 40.1 µg/mL). The MIC in test [15] was found to be 13.2 µM (≈ 40.1 µg/mL); in test [16], 0.329 µM (≈ 1 µg/mL); in [17], 21.1 µM (≈ 64 µg/mL); in [18], 4.9 µM (≈ 14.9 µg/mL); in test [19], 13.2 µM (≈ 40.1 µg/mL); in test [20], 4.9 µM (≈ 14.9 µg/mL).

On to `CC[C@H](C)[C@H](NC(=O)[C@H](CCCCN)NC(=O)[C@H](Cc1cnc[nH]1)NC(=O)[C@H](CC(C)C)NC(=O)[C@H](CC(C)C)NC(=O)CNC(=O)[C@H](CC(N)=O)NC(=O)[C@@H](N)C(C)C)C(=O)N[C@@H](Cc1ccc(O)cc1)C(=O)NCC(=O)N[C@@H](CC(N)=O)C(=O)N[C@H](C(=O)N[C@@H](CCCN=C(N)N)C(=O)N[C@@H](Cc1ccc(O)cc1)C(=O)N[C@@H](CO)C(=O)O)[C@@H](C)CC` [VNGLLHKIYGNIRYS], for which the minimal inhibitory concentration (MIC) against Escherichia coli is 8.93 µM (≈ 15.6 µg/mL); against Aeromonas hydrophila, 8.93 µM (≈ 15.6 µg/mL); with Streptococcus pyogenes, 8.93 µM (≈ 15.6 µg/mL); against Vibrio fluvialis it was at least 143 µM; in the test with Vibrio parahaemolyticus, at least 35.8 µM; in the test on Vibrio alginolyticus, at least 143 µM. Further, in the test with Staphylococcus aureus, the minimal inhibitory concentration (MIC) is over 143 µM.

As to `CC[C@H](C)[C@H](NC(=O)[C@@H](NC(=O)[C@H](CCCCN)NC(=O)[C@H](CO)NC(=O)[C@H](CCCCN)NC(=O)[C@H](CC(=O)O)NC(=O)[C@H](CO)NC(=O)[C@@H]1CCCN1C(=O)CNC(=O)[C@H](CO)NC(=O)[C@H](Cc1cnc[nH]1)NC(=O)[C@H](Cc1ccc(O)cc1)NC(=O)[C@@H](N)CCCCN)C(C)C)C(=O)N[C@@H](CO)C(=O)O` [KYHSGPSDKSKVIS], the minimal inhibitory concentration (MIC) in [21] was over 65.2 µM; in the test on Candida krusei CBS 573, at least 65.2 µM; in test [22], at least 65.2 µM; in [23] it was at least 65.2 µM.

In the case of `CC[C@H](C)[C@H](NC(=O)CNC(=O)[C@H](Cc1cnc[nH]1)NC(=O)[C@H](CCCCN)NC(=O)[C@@H](NC(=O)[C@H](CO)NC(=O)CNC(=O)[C@@H](NC(=O)[C@H](Cc1ccccc1)NC(=O)[C@H](CCCN=C(N)N)NC(=O)[C@H](CCCCN)NC(=O)[C@@H](N)Cc1ccccc1)[C@@H](C)CC)C(C)C)C(=O)NCC(=O)N[C@@H](Cc1cnc[nH]1)C(=O)N[C@@H](CC(C)C)C(=O)N[C@H](C(=O)N[C@@H](Cc1cnc[nH]1)C(=O)N[C@@H](Cc1cnc[nH]1)C(=O)N[C@H](C(=O)NCC(=O)N[C@H](C(=O)N[C@@H](C)C(=O)N[C@@H](CC(C)C)C(N)=O)C(C)C)[C@@H](C)CC)C(C)C` [FKRFIGSVKHGIGHLVHHIGVAL], the MIC in [4] is 2 µM and 4 µM; in test [24], at least 32 µM; in test [25], 8 µM (≈ 20.2 µg/mL); in test [26], 16 µM and 8 µM; in test [27] it was 8 µM and 16 µM; in [28], 4 µM and 8 µM. The MIC in test [29] was 4 µM and 8 µM.
